Experimental data: article PMC11955804, “Histidine-rich enantiomeric peptide coacervates enhance antigen sequestration and presentation to T cells” (Chemical Science, 2025)
Blank lines part the entries; values can stand above or below the molecule they belong to.

Experiments:
[1] = tested on: BMDCs overlaid with DOBW cells; assay: In vitro antigen presentation assay, MHC class II (BMDCs + DOBW hybridoma, IL-2 ELISA); settings: BMDCs pre-treated 1 h: Chlorpromazine 30 µM, Dynasore 50 µM, Wortmannin 10 µM, Methyl β-CD 2 mM; OVA-loaded coacervates; DOBW overlay 16 h
Protocol: To test internalization mechanisms, we utilized in vitro antigen presentation assays (Fig. 4A). Here, bone marrow-derived dendritic cells (BMDCs) are treated with coacervates loaded with the model antigen ovalbumin (OVA). […] Secretion of IL-2 in response to peptide-MHC recognition is an indirect measure of coacervate uptake and can be quantified using ELISA (enzyme-linked immunosorbent assay) (Fig. 4A). […] We next used pharmacological inhibitors of endocytic mechanisms to explore mechanisms of cell entry (Fig. 4E). BMDCs were treated with inhibitors of clathrin-mediated endocytosis (chlorpromazine, CPZ),[58] dynamin-dependent endocytosis (dynasore, Dyn),[59] macropinocytosis (wortmannin, Wort),[60] cholesterol (methyl β-CD),[61] and IPA3 the regulatory domain of PAK1 (IPA-3)[62] for one h prior to antigen presentation assays.
Uptake of coacervates by BMDCs was measured using in vitro antigen presentation assays.
BMDCs were plated in 96-well round-bottom plates (1×10^5 cells/well) and maintained at 4°C or
treated with 10 mM deoxy glucose and 10 mM sodium azide in PBS (ATP depletion) for 1 h prior
to addition of OVA-loaded coacervates. Final OVA concentration was 1 g/mL for time-
dependent measurements and 10 g/mL for comparison between enantiomers. Cells maintained at
37°C and complete RPMI media served as controls. Soluble OVA and PBS treated cells were used as controls for antigen delivery. Following treatment (2 h, 4 h, 24 h, 48 h, or 72 h), BMDCs were
washed to remove extracellular coacervates and DOBW hybridoma cells (1:5, DC: DOBW) were
overlaid for 16 h. The cells were then centrifuged at 300 × g for 5 min, and the supernatant was
collected for IL-2 quantitation by ELISA according to the manufacturer protocol (Biotechne,
#DY402). The amount of IL-2 produced under each condition was measured.
Inhibition of coacervate uptake was measured by adding the inhibitors 1 h
prior to coacervate treatment for 24 h followed by hybridoma overlay and IL-2 measurements.

DCs = assay: DQ-OVA delivery to lysosomes (fluorescence microscopy); assay type: cell-based, mouse; settings: DCs treated with DQ-OVA coacervates
Protocol: page 13: Flow cytometry The transfected A549 cells were washed with FACS wash buffer (FWB; 1× PBS with 10% […] Cells were washed again with FWB and then resuspended in 100 µl of PBS with eBioscience™ Fixable Viability Dye eFluor™ 506 antibody. The staining was quenched with FWB following a 20 min incubation. The cells were centrifuged, washed 2× times with FWB, and resuspended in 100 µl FWB with CD55 (DAF) Antibody (anti-human; miltenyibiotec Cat#130-126-382). After 20 min, staining was quenched, cells washed twice and resuspended in 200 µl FWB for acquisition. Single-stained cells stained with eFluor™ 506, CD55 (DAF) Antibody, were used as compensation controls. Samples were acquired using an Agilent NovoCyte 3000 flow cytometer. Data were analyzed with FlowJo version 10. […] was quantified as the percentage CD55+ cells, considering untreated cells as the negative control and Lipofectamine treated ones as the positive control. Antigen delivery to lysosomes and inhibitor effects DC 2.4 cells were cultured in RPMI-1640 (Catalog number: 11875093) medium supplemented with 10% FBS, 100 U/mL penicillin, 100 μg/mL streptomycin, and 1 mM sodium pyruvate. Cells were plated in 8-well chamber slides (5000 cells in 200 μL of media) and incubated for 24 h prior to addition of DQ-OVA loaded coacervates for 2 h, 6 h, or 24 h (final DQ-OVA concentration was 2.5 μg/mL). Cells treated with PBS or soluble OVA served as controls. Cells were then washed and fixed using 4% Paraformaldehyde (PFA) for 15 min at RT and permeabilized with 0.1% Triton X-100 for 5 min prior to nuclear staining with Hoechst stain (Catalog number: 62249, Thermo Fischer Scientific; 10 μg/mL). Cells were imaged (60×) on Lionheart FX automated microscope (BioTek Instruments, Inc.) with controlled exposure S13 page 14: parameters across two channels: eGFP and DAPI.

[2] = tested on: BMDCs overlaid with OVA1.3 hybridoma cells; assay: In vitro antigen presentation assay, MHC class I (BMDCs + OVA1.3 hybridoma, IL-2 ELISA); assay type: cell-based, mouse; settings: inhibitor 30 min before coacervates, Bortezomib 10 nM, Brefeldin A 17.8 µM, Lactacystin 50 µM
Excerpt: parameters across two channels: eGFP and DAPI. Images were captured for each time point (2, 6, […]
deconvoluted using Gen 5 software overlaid to visualize localization. To test the effect of […]
T cell proliferation and functional cytokine production […]
at 1×10^8 cells/mL in EasySep Buffer.

[3] = Optical microscopy of coacervate formation (LLPS); assay type: physicochemical
Excerpt: NaCl) was used to study ionic strength effects. The absorbance was further converted to turbidity using methods previously described 1 and data was plotted as relative turbidity.
Optical microscopy and dynamic light scattering (DLS)
Droplets were visualized in 1×PBS using NCI Leica DMC4500 microscope in reflection mode with differential interference contrast. Images were captured with a DMC4500 camera under the control of Leica LAS X software (version 3.4.2). […]

[4] = Dynamic light scattering (DLS) droplet size; assay type: physicochemical; settings: 1 mM peptide, 1× PBS, pH 7.4; mean of 3 measurements with 14 scans each; identical for each pair of enantiomers
Protocol: Optical microscopy and dynamic light scattering (DLS) […]
Coacervate size was measured using 1 mM
peptide solutions (1×PBS, pH 7.4) on a ZEN 3600 Zetasizer (Malvern Instruments, UK) using
DLS-Zen 0040 specialized cuvettes. The results were reported as the means of three
measurements, with 14 scans for each measurement. […]

[5] = Critical concentration (Ccrit) of coacervate formation; assay type: physicochemical; settings: 1× PBS, pH 7.4; enantiomeric variants identical
Excerpt: (§1) Peptide synthesis and purification
(§2) The L- and D-enantiomers of (GHGLY)4, (GHGVY)4 and (GHGPY)4 peptides were purchased from GenScript and used without further modification. (GHGAY)4, (GHGFY)4, (GHGIY)4 and (GHGNY)4 were synthesized using standard Fmoc-SPPS chemistry on Rink Amide with Oxyma (Ethyl cyano(hydroxyimino) acetate) and N, N′-diisopropylcarbodiimide (DIC) as coupling agents on a Liberty Blue microwave-assisted synthesizer. Peptides were cleaved using a cocktail of trifluoroacetic acid (TFA), tri-isopropyl silane (TIS), and H2O (95:2.5:2.5) and extracted and washed in cold diethyl ether. The resulting pellet was dissolved in acetonitrile/water mixture (50:50) and frozen prior to lyophilization. Peptides were purified (~90%) using High Performance Liquid Chromatography (HPLC) on a Dionex Ultimate 3000 HPLC equipped with a diode-array detector on an Agilent Poroshell RP-C18 column (4.6 mm×150 mm), operating at a flow rate of 1 mL/min. Peaks corresponding to 220 nm were collected for MALDI -TOF mass analysis (Shimadzu MALDI-8030) using α-cyno-4-hydroxycinnamic acid matrix (Bruker Daltonics, MA).
(§3) Peptide solutions (0.25–1.5 mM) were prepared in 1×PBS at pH 7.4. Aliquots (140 µL) were pipetted into a 96-well plate and absorbance at 600 nm was measured over 24 h using a Synergy HT plate reader (Biotek, USA) at RT or 37°C with or without agitation. The pH dependence of LLPS formation was assessed in 0.1 M potassium phosphate buffer (with 150 mM NaCl) at different pH values (5.8, 6.6, 7.4, 8.0) and 1 mM peptide concentration. Similarly, 0.1 M potassium phosphate buffer (pH 7.4) with varying salt concent rations (0, 150, 250, 500, 1000 mM […]
Figure S10. Determination of Ccrit for (a) (GHGLY)4, (b) (GHGVY)4, (c) (GHGPY)4 and (d-f) their corresponding enantiomers (1 mM, 1× PBS, pH 7.4).
Table S1. Measured Ccrit values for (GHGXY)4 peptides used in this study.
(1 picture or pasted object on this page, not shown here)

Turbidity assay of LLPS = assay type: physicochemical; settings: 1× PBS pH 7.4, absorbance at 600 nm over 24 h, plate reader
Excerpt: as §1
as §2, with “Peaks corresponding to 220 nm were collected for MALDI -TOF mass analysis (Shimadzu MALDI-8030) using α-cyno-4-hydroxycinnamic acid matrix (Bruker Daltonics, MA).” left out
as §3, with “concentration.” for “concentration. Similarly, 0.1 M potassium phosphate buffer (pH 7.4) with varying salt concent rations (0, 150, 250, 500, 1000 mM”
NaCl) was used to study ionic strength effects. The absorbance was further converted to turbidity using methods previously described 1 and data was plotted as relative turbidity. […]
Droplets were visualized in 1×PBS using NCI Leica DMC4500 microscope in reflection mode with differential interference contrast. […] Coacervate size was measured using 1 mM peptide solutions (1×PBS, pH 7.4) on a ZEN 3600 Zetasizer (Malvern Instruments, UK) using DLS-Zen 0040 specialized cuvettes. […]
Viscosity of the peptide solutions (1 mM or 2 mM) was tested using an ARES 2000ex rotational rheometer (TA Instruments, New Castle, DE). […] Viscosity was measured as a function

[6] = Encapsulation efficiency measurement; assay type: physicochemical; settings: 1 mM peptide, 1 µM eGFP in PBS; centrifuged 15,000 × g 10 min; fluorescence of supernatant (λex 395 nm, λem 510 nm)
Protocol: Encapsulation efficiency measurements […]
powders to a final peptide concentration of 1 mM. Cargo concentrations in the stock solutions […]
nm and λem: 519 nm). For small molecule dyes, similar methods were used. The encapsulation efficiency was determined as reported previously 12.
Cellular uptake and antigen presentation assays […]
to addition of OVA-loaded coacervates. Final OVA concentration was 1 µg/mL for time- […]
37°C and complete RPMI media served as controls. Soluble OVA and PBS treated cells were used as controls for antigen delivery.

Molecule: CN(C)CCCN1c2ccccc2Sc2ccc(Cl)cc21 [CPZ, chlorpromazine]
- effect of endocytosis inhibitor on uptake of coacervates (IL-2) [1]: did not significantly impact droplet uptake

Molecule: O=C(N/N=C/c1ccc(O)c(O)c1)c1cc2ccccc2cc1O [Dyn, dynasore]
- effect of endocytosis inhibitor on uptake of coacervates (IL-2) [1]: did not significantly impact droplet uptake

Molecule: Cl.N [NH4Cl, reference compound]
- DQ-OVA fluorescence intensity in DCs in the presence of inhibitor (DCs): reduced

Molecule: CO/C1=C\C(C)=C\[C@@H](C)[C@@H](O)[C@@H](C)C/C(C)=C/C=C/[C@H](OC)[C@@H]([C@@H](C)[C@@H](O)[C@H](C)[C@@]2(O)C[C@@H](O)[C@H](C)[C@@H](C(C)C)O2)OC1=O [bafilomycin, reference compound]
- DQ-OVA fluorescence intensity in DCs in the presence of inhibitor (DCs): reduced

Molecule: CC(C)C[C@H](NC(=O)[C@H](Cc1ccccc1)NC(=O)c1cnccn1)B(O)O [bortezomib]
- MHC class I presentation (IL-2 secretion) with MHC-I inhibitor [2]: significantly diminished

Molecule: C[C@H]1CCC/C=C/[C@@H]2C[C@H](O)C[C@H]2[C@H](O)/C=C/C(=O)O1 [brefeldin A]
- MHC class I presentation (IL-2 secretion) with MHC-I inhibitor [2]: significantly diminished

Molecule: CC(=O)N[C@@H](CSC(=O)[C@]1([C@@H](O)C(C)C)NC(=O)[C@H](C)[C@@H]1O)C(=O)O [lactacystin]
- MHC class I presentation (IL-2 secretion) with MHC-I inhibitor [2]: significantly diminished

Molecule: COC[C@H]1OC(=O)c2coc3c2[C@@]1(C)C1=C(C3=O)[C@@H]2CCC(=O)[C@@]2(C)C[C@H]1OC(C)=O [wortmannin]
- effect of endocytosis inhibitor on uptake of coacervates (IL-2) [1]: most significant effect on uptake of coacervates

- coacervates at concentrations exceeding 250 mM NaCl ([3]; optical micrographs, 0.1 M potassium phosphate buffer pH 7.4, > 250 mM NaCl): no coacervates were detected
- coacervate formation ([3]; optical microscopy, 1× PBS, across multiple synthesis batches): Consistent coacervate formation
- droplet size (DLS) [4]: ~0.2 μm
- critical concentration (Ccrit) of coacervate formation [5]: 1 mM
- eGFP loading efficiency [6]: ~30%
Molecule: (GHGPY)4 [GP 20]
- turbidity over time (A600) (Turbidity assay of LLPS): no turbidity changes were detected with time

Molecule: methyl β-CD
- effect of endocytosis inhibitor on uptake of coacervates (IL-2) [1]: did not significantly impact droplet uptake
